Source: article PMC12114297 (Molecules, 2025)
Converted amounts (≈) assume the structure as drawn. Read-outs that look alike come from different tables or passages of the source.

Columns and labels:
[1] = system: Staphylococcus epidermidis ATCC 12228; assay: Agar well diffusion, S. epidermidis; type: cell-based; conditions: ATCC12228, read-out: Staphylococcus epidermidis ATCC 12228 ZOI, 60 µL of 1 mg/mL per well, ZOI including the well (6 mm), ± SD, n = 3, ciprofloxacin disk 5 μg
Description: (§1) The antimicrobial potential of the synthesized coumarin–triazole–isatin hybrids was evaluated by the agar well diffusion method. The activity was tested against a variety of Gram-positive bacteria (Staphylococcus aureus ATCC 25923 and ATCC 902710, Staphylococcus epidermidis ATCC 12228, Streptococcus pyogenes ATCC 19615, Enterococcus faecalis ATCC 51299), Gram-negative bacteria (Escherichia coli ATCC 25922, Haemophilus influenzae ATCC 49766, Pseudomonas aeruginosa ATCC 27853, Salmonella typhi ATCC 14028, Neisseria meningitidis ATCC 13090, Neisseria gonorrhoeae ATCC 43069), and fungi (Candida albicans ATCC 60193 and ATCC 90028, Candida orientalis ATCC 6258). All microbial strains were obtained from Microbiologics (St.Cloud, MN, USA).
(§2) The test compounds were dissolved in DMSO to obtain stock solutions (1 mg/mL). Each compound (60 µL) was transferred into wells (6 mm in diameter) that were previously perforated into agar plates inoculated with microbial suspensions standardized to 0.5 McFarland for bacteria and 2 McFarland for Candida spp. DMSO was used as a negative control, while commercial antibiotic disks of novobiocin (5 μg), ampicillin (10 μg), and ciprofloxacin (5 μg) served as positive controls. Antimicrobial activity was assessed by measuring the diameter of zones of inhibition (ZOIs) in millimeters. All tests were conducted in triplicate.

[2] = system: Staphylococcus aureus ATCC 25923; assay: Agar well diffusion, S. aureus; type: cell-based; conditions: for zone of inhibition at 1000 µg/mL: Staphylococcus aureus; for Antibacterial activity in words: agar well diffusion, particularly S. aureus
Description: as §1, §2

[3] = system: S. epidermidis ATCC 12228; assay: MIC by agar dilution, S. epidermidis; type: cell-based; conditions: Staphylococcus epidermidis, ATCC12228, 0.39–200 μg/mL, read-out: MIC against S. epidermidis
[4] = system: S. aureus ATCC 25923; assay: MIC by agar dilution, S. aureus; type: cell-based; conditions: Staphylococcus aureus, ATCC25923, 0.39–200 μg/mL, read-out: MIC against S. aureus
[5] = biological target: T1, AChE from Electrophorus electricus (eeAChE) (Electrophorus electricus, UniProt O42275); assay: biochemical; conditions: for inhibition at 20 µM: read-out: AChE % of Inhibition (Conc. 20 μM); for IC50: average ± standard error (n = 3)
T1 construct: purchased Sigma-Aldrich (St. Louis, MO, USA)

[6] = biological target: T2, BChE from equine serum (eqBuChE) (Equus caballus, UniProt P81908); assay: biochemical; conditions: for inhibition at 20 µM: read-out: BChE % of Inhibition (Conc. 20 μM), 20 μM; for inhibition at 20 µM / IC50: average ± standard error (n = 3); for Selectivity BChE/AChE: ratio of AChE and BChE IC50
T2 construct: BChE from equine serum (BChE, EC 3.1.1.8); purchased Sigma-Aldrich (St. Louis, MO, USA); host or cells: equine serum
Description: The in vitro cholinesterase inhibitory activity of the synthesized hybrid molecules was evaluated using a modified Ellman’s assay, optimized for 96-well microplate application. AChE from Electrophorus electricus (AChE, EC 3.1.1.7), BChE from equine serum (BChE, EC 3.1.1.8), acetylthiocholine iodide (ATCh), butyrylthiocholine iodide (BTCh), and 5,5′-dithiobis(2-nitrobenzoic acid) were purchased from Sigma-Aldrich (St. Louis, MO, USA) and used without further purification.
Test compounds were initially dissolved in dimethylsulphoxide (DMSO) to yield 1 mM stock solutions and subsequently diluted with 0.1 M phosphate buffer (pH 8.0) to prepare working solutions.
For the assay, 20 µL of compound solution was added to 140 µL of 0.1 M phosphate buffer (pH 8.0) in each well, followed by 20 µL of enzyme solution (AChE or BuChE, 100 U/L). After incubation at room temperature for 10 min, the reaction was initiated by adding 10 µL of DTNB (0.01 M) and 10 µL of substrate (ATCh or BTCh, 0.015 M). […] The percentage inhibition of enzyme activity was calculated using the following equation:(1) % Inhibition=Absorbance of control−Apsorbance of sample/Absorbance of control×100 where the absorbance of the control represents the maximum enzyme activity (without inhibition), and the absorbance of the sample corresponds to the enzyme activity in the presence of the tested compound. Appropriate blanks were included to account for background absorbance and to correct for any intrinsic color of the tested compounds.
All experiments were performed in triplicate.

[7] = biological target: T3, BChE (Equus caballus, UniProt P81908); assay: Type of enzyme inhibition, Lineweaver–Burk plot; type: biochemical, equine
T3 construct: BChE from equine serum (BChE, EC 3.1.1.8); purchased Sigma-Aldrich (St. Louis, MO, USA); host or cells: equine serum
Description: The concentrations of substrate and inhibitor used in the assay are given in Section 3.3.1.
The type of enzyme inhibition was assessed using Lineweaver–Burk plots, which represent a linear transformation of the Michaelis–Menten equation. This method enables visual classification of inhibition type by plotting the reciprocal of the initial reaction velocity (1/Vo) against the reciprocal of the substrate concentration (1/[S]).
The intersection pattern of the fitted lines was used to identify the inhibition mechanism. All tests were replicated three times.

[8] = ATCC25923, 60 µL of 1 mg/mL per well, ZOI including the well (6 mm), ± SD, n = 3, ciprofloxacin disk 5 μg, read-out: Staphylococcus aureus ATCC 25923 ZOI

T1 sequence (O42275 24-633): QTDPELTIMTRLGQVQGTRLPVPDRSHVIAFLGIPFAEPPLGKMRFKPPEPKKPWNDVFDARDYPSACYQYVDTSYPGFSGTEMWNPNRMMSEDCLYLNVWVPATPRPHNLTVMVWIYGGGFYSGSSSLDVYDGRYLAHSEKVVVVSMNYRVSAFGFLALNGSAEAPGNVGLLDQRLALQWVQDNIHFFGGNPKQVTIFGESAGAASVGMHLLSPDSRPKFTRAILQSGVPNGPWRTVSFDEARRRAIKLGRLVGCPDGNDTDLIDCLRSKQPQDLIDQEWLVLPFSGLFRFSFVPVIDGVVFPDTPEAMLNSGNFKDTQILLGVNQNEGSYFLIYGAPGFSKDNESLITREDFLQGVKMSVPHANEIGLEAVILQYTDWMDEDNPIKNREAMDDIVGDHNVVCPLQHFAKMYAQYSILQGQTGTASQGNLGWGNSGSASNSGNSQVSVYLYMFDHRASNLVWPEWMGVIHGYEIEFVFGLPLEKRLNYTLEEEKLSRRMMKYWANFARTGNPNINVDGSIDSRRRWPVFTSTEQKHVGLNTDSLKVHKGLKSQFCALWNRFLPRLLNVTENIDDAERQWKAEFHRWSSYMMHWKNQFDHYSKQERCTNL
T3 sequence (P81908 whole entry): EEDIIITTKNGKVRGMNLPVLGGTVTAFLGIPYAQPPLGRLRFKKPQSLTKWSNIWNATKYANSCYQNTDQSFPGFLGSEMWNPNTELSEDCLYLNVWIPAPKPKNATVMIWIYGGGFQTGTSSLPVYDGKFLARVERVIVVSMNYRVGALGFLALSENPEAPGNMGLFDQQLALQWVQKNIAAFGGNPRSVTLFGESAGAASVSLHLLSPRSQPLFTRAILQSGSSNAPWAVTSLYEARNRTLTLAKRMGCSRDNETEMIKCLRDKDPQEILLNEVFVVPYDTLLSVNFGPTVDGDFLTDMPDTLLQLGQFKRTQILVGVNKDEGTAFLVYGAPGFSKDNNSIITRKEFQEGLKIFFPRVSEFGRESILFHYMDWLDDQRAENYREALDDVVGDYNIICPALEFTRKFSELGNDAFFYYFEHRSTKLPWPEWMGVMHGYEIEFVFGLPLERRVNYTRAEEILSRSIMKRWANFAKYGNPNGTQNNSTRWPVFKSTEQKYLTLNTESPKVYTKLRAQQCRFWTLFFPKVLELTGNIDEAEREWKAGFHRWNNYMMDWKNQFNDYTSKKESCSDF
T2 sequence (P81908 whole entry): as above

SMILES	zone of inhibition at 1000 µg/mL [1] [mm]	Staphylococcus aureus ATCC 25923 ZOI ([2]; 60 µL of 1 mg/mL per well, ZOI including the well (6 mm), ± SD, n = 3, ciprofloxacin disk 5 μg) [mm]	zone of inhibition at 1000 µg/mL [2, 8] [mm]	MIC [3] [µg/mL]	MIC [4] [µg/mL]	Antibacterial activity in words [2]	inhibition at 20 µM [5] [%]	inhibition at 20 µM [6] [%]	zone of inhibition at 1000 µg/mL ([2]; ATCC25923, read-out: Staphylococcus aureus ATCC 25923 ZOI, 60 µL of 1 mg/mL per well, ZOI including the well (6 mm), ± SD, n = 3, ciprofloxacin disk 5 μg) [mm]	IC50 [6] [µM]	IC50 [5] [µM]	α value (affinity constant) ([7]; from Lineweaver–Burk plot)	Type of inhibition ([7]; substrate 1–8 mM, inhibitor 4, 8, 12 μM)	Selectivity BChE/AChE [6]
O=C(O)c1cn(C2CC2)c2cc(N3CCNCC3)c(F)cc2c1=O [Ciprofloxacine, ciprofloxacin, reference compound]	5.24 ± 1.16	27.00 ± 1.62	27	0.78 (≈ 2.35 µM)	0.78 (≈ 2.35 µM)									
O=C1C(=O)N(Cc2cn(CCOc3cc(=O)oc4ccccc34)nn2)c2ccc(Br)cc21 [Compound 6a4, 5-bromo-1-((1-(2-((2-oxo-2H-chromen-4-yl)oxy)ethyl)-1H-1,2,3-triazol-4-yl)methyl)indoline-2,3-dione]			12 to 20		12.5 (≈ 25.2 µM)	showed activity	4.57 ± 0.87	22.7 ± 3.87						
O=C1C(=O)N(Cc2cn(CCCOc3cc(=O)oc4ccccc34)nn2)c2ccc(Br)cc21 [Compound 6b4, 5-bromo-1-((1-(3-((2-oxo-2H-chromen-4-yl)oxy)propyl)-1H-1,2,3-triazol-4-yl)methyl)indoline-2,3-dione]	14			25 (≈ 49.1 µM)	6.25 (≈ 12.3 µM)	moderate antibacterial effects	22.9 ± 2.11	66.2 ± 8.11	20	13.3 ± 2.19				
O=C1C(=O)N(Cc2cn(CCCCOc3cc(=O)oc4ccccc34)nn2)c2ccccc21 [Compound 6c1, 1-((1-(4-((2-oxo-2H-chromen-4-yl)oxy)butyl)-1H-1,2,3-triazol-4-yl)methyl)indoline-2,3-dione]	1.74 ± 0.29		8.67 ± 1.15			only weak antibacterial activity	67.1 ± 3.27	84.5 ± 8.46		1.74 ± 0.29	15.3 ± 1.22	greater than 1	mixed-type inhibition	8.78
O=C1C(=O)N(Cc2cn(CCCCOc3cc(=O)oc4ccccc34)nn2)c2ccc(F)cc21 [Compound 6c2, 5-fluoro-1-((1-(4-((2-oxo-2H-chromen-4-yl)oxy)butyl)-1H-1,2,3-triazol-4-yl)methyl)indoline-2,3-dione]	5.51 ± 1.38		12 ± 2.65			only weak antibacterial activity	61 ± 3.49	79.1 ± 5.49		5.51 ± 1.38	17.1 ± 1.65			3.11
